The values below come from patent publication US20190241535A1, “3-SUBSTITUTED CARBONYL-NAPHTHO[2,3-B]FURANE DERIVATIVE OR PHARMACEUTICALLY ACCEPTABLE SALT THEREOF” (Boston Biomedical, Inc., priority 2014, published 2019).

This series can be described thus: Test 4: concentration of the test compounds in plasma. The class given is in vivo. The conditions noted are these: mouse, po, 25 mg/kg, 25 mg/kg po. The method, then:
Administration method: The test compound scaled to a given weight was suspended in 0.5% methylcellulose to prepare an administration solution. A mouse was weighed, and the administration solution was orally administered to the mouse depending on its weight.
Blood sampling method: EDAT-2K was added to a blood collection tube, into which the blood of the mouse was sampled. The sampled blood was centrifuged to give plasma.
Preparation of standard solution: The test compound scaled to 1 mg was dissolved in 10 mL of MeOH in a volumetric flask to prepare a 100 μg/mL standard solution.
Measure of the concentration in plasma: The 100 μg/mL standard solution was diluted with MeOH to prepare a sample for calibration curve which has the desired concentration. To 50 μL of the sample for calibration curve was added 50 μL of the blank plasma to prepare a sample for plasma calibration curve. To 50 μL of the plasma sample treated with the test compound was added 50 μL of MeOH to prepare a sample for analyzing plasma. To each 100 μL of the sample for plasma calibration curve and the sample for analyzing plasma was added 150 μL of MeOH containing an internal standard respectively. The internal standard used herein was bezafibrate, the concentration of which was 200 nM. Each 5 μL of the samples was analyzed with an LC-MS. The calibration curve was prepared based on the peak ratio of MS peak area of the test sample per that of the internal standard, and the concentration of the sample for plasma calibration curve. The concentration of the test compound in each sample was calculated based on the peak ratio of each sample, and the calibration curve.

Setting [1] is: animal 1, read-out: Concentration in plasma, animal 1.
Where [2] appears, read: animal 2, read-out: Concentration in plasma, animal 2.
[3] abbreviates: animal 3, read-out: Concentration in plasma, animal 3.
Where [4] appears, read: mean of 3, read-out: Concentration in plasma, mean.

Read-outs that look alike come from different tables or passages of the source.

`CN1CCN(C(=O)c2c(C(F)(F)F)oc3c2C(=O)c2ccccc2C3=O)CC1` [Example 8, 3-(4-Methylpiperazine-1-carbonyl)-2-(trifluoromethyl)naphtho[2,3-b]furan-4,9-dione]: the concentration at 2 hr was found to be 508 ng/mL under setting [1], 473 ng/mL under setting [2], 384 ng/mL under setting [3] and 455 ng/mL under setting [4]. In addition, the concentration at 6 hr by setting is: under setting [1], 351 ng/mL; under setting [2], 2800 ng/mL; under setting [3], 334 ng/mL; under setting [4], 1160 ng/mL.
